Measurements reported in ChEMBL document CHEMBL5550185, “Targeting hTERT Promoter G-Quadruplex DNA Structures with Small-Molecule Ligand to Downregulate hTERT Expression for Triple-Negative Breast Cancer Therapy” (J Med Chem, 2024).
Activity calls are given as the source filed them. The rule behind the calls is not given here.

Legend:
[1] = test system: dsDNA; experiment: Binding affinity to 4a4t duplex DNA (unknown origin) assessed as thermal stability by measuring change in melting temperature at 400 uM […]; assay type: nucleic-acid assay
[2] = test system: HepG2; experiment: Cytotoxicity against telomerase-positive human HepG2 cells assessed as inhibition of cell growth incubated for 48 hrs by MTT assay; assay type: functional, cell-based; details: HepG2, 48 h
[3] = test system: HeLa; experiment: Cytotoxicity against telomerase-positive human HeLa cells assessed as inhibition of cell growth incubated for 48 hrs by MTT assay; assay type: functional, cell-based
[4] = test system: Quadruplex DNA; experiment: Binding affinity to CKIT-2 G4 DNA (unknown origin) assessed as change in enthalpy at 400 uM by ITC analysis; assay type: nucleic-acid assay
[5] = test system: A549; experiment: Cytotoxicity against telomerase-positive human A549 cells assessed as inhibition of cell growth incubated for 48 hrs by MTT assay; assay type: functional, cell-based; details: A549, 48 h
[6] = molecular target: Quadruplex DNA; experiment: Binding affinity to Telo21 G4 DNA (unknown origin) assessed as dissociation constant by ITC analysis; assay type: nucleic-acid assay
[7] = species on record: Homo sapiens; experiment: Selectivity ratio of binding affinity to human TERT G4 DNA to binding affinity to antisense i-hTERT DNA
[8] = test system: Quadruplex DNA; experiment: Binding affinity to human TERT G4 DNA in Tris-HCl buffer at pH 7.4 assessed as increase in CD signal at 5 to 100 uM by circular dichroism spectrometer; assay type: nucleic-acid assay; details: dose 5-100 µM
[9] = Cytotoxicity against human HK-2 cells assessed as inhibition of cell growth incubated for 48 hrs by MTT assay; assay type: toxicity, cell-based
[10] = Cytotoxicity against HUVEC cells assessed as inhibition of cell growth incubated for 48 hrs by MTT assay; assay type: toxicity, cell-based; details: human
[11] = test system: Quadruplex DNA; experiment: Binding affinity to G4 DNA in telomerase-positive live human MDA-MB-231 cells assessed as colocalization of BG4 and compound at 5 uM incubated for 2 hrs by immunofluorescence assay; assay type: cell-based
[12] = test system: MDA-MB-231; experiment: Induction of telomere dysfunction in human MDA-MB-231 cells assessed as cellular senescence at 0.2 uM measured after 10 days by SA-beta-gal staining based analysis; assay type: functional, cell-based; details: time 10.0 day
[13] = test system: MDA-MB-231; experiment: Induction of DNA damage in human MDA-MB-231 cells assessed as upregulation of gamma-H2AX protein expression measured after 48 hrs by Western blot analysis; assay type: functional, cell-based; details: dose 0-1.5 µM
[14] = test system: MDA-MB-231; experiment: Inhibition of hTERT expression in human MDA-MB-231 cells assessed as reduction in pink foci in cytoplasm at 0.5 uM incubated for 48 hrs in presence of TBHP at 200 uM by immunofluorescence analysis; assay type: functional, cell-based
[15] = test system: MDA-MB-231; experiment: Disruption of energy metabolism in human MDA-MB-231 cells assessed as increase in ECAR at 0 to 1.5 uM measured after 2 hrs by Seahorse XF24 analyzer; assay type: functional, cell-based; details: dose 0-1.5 µM
[16] = test system: MDA-MB-231; experiment: Induction of ferroptosis in human MDA-MB-231 cells assessed as reduction in GPX4 protein expression at 0 to 1.5 uM measured after 48 hrs by Western blot analysis; assay type: functional, cell-based; details: dose 0-1.5 µM
[17] = test system: MDA-MB-231; experiment: Induction of ferroptosis in human MDA-MB-231 cells assessed as increase in ROS production measured after 48 hrs by Hoechst 33342 staining based confocal microscopic analysis; assay type: functional, cell-based; details: dose 0-1.5 µM
[18] = test system: MDA-MB-231; experiment: Downregulation of p62 protein expression in human MDA-MB-231 cells at 0 to 1.5 uM measured after 48 hrs by Western blot analysis; assay type: functional, cell-based; details: dose 0-1.5 µM
[19] = test system: MDA-MB-231; experiment: Downregulation of DNAPKcs transcription level in human MDA-MB-231 cells at 1 uM measured after 48 hrs by RNA-seq analysis; assay type: functional, cell-based
[20] = Upregulation of PLK2 gene expression in human MDA-MB-231 cells assessed as fold change at 1 uM measured after 48 hrs by RNA-seq analysis relative to control; assay type: functional
[21] = Upregulation of KLF2 gene expression in human MDA-MB-231 cells assessed as fold change at 1 uM measured after 48 hrs by RNA-seq analysis relative to control; assay type: functional
[22] = Upregulation of S1PR1 gene expression in human MDA-MB-231 cells assessed as fold change at 1 uM measured after 48 hrs by RNA-seq analysis relative to control; assay type: functional
[23] = Upregulation of EGF gene expression in human MDA-MB-231 cells assessed as fold change at 1 uM measured after 48 hrs by RNA-seq analysis relative to control; assay type: functional
[24] = Upregulation of CCNB3 gene expression in human MDA-MB-231 cells assessed as fold change at 1 uM measured after 48 hrs by RNA-seq analysis relative to control; assay type: functional
[25] = Upregulation of HLA-C gene expression in human MDA-MB-231 cells assessed as fold change at 1 uM measured after 48 hrs by RNA-seq analysis relative to control; assay type: functional
[26] = Upregulation of IL-1A gene expression in human MDA-MB-231 cells assessed as fold change at 1 uM measured after 48 hrs by RNA-seq analysis relative to control; assay type: functional
[27] = Upregulation of FTH1 gene expression in human MDA-MB-231 cells assessed as fold change at 1 uM measured after 48 hrs by RNA-seq analysis relative to control; assay type: functional
[28] = Upregulation of SAT2 gene expression in human MDA-MB-231 cells assessed as fold change at 1 uM measured after 48 hrs by RNA-seq analysis relative to control; assay type: functional
[29] = Upregulation of PCBP3 gene expression in human MDA-MB-231 cells assessed as fold change at 1 uM measured after 48 hrs by RNA-seq analysis relative to control; assay type: functional
[30] = Toxicity in female Balb/c nude mouse xenografted with human MDA-MB-231 cells assessed as reduction in body weight at 2 to 5 mg/kg, iv administered via tail vein every 2 days for 16 days; assay type: organism-based; details: in vivo, 384 h, dose 2-5 mg/kg, time 16 day
[31] = test system: MDA-MB-231; experiment: Antitumor activity against human MDA-MB-231 cells xenografted in female Balb/c mouse assessed as reduction in tumor volume at 2 mg/kg, iv administered via tail vein every 2 days for 16 days relative to control; assay type: functional; set-up: scale not given: the % may be the effect or the level left; details: time 16 day
[32] = test system: MDA-MB-231; experiment: Antitumor activity against human MDA-MB-231 cells xenografted in iv dosed female Balb/c mouse assessed as nuclear fragmentation in tumor administered via tail vein every 2 days for 16 days by H and E staining based analysis; assay type: functional, organism-based; details: dose 2-5 mg/kg, time 16.0 day
[33] = test system: MDA-MB-231; experiment: Antitumor activity against human MDA-MB-231 cells xenografted in female Balb/c mouse assessed as inhibition of tumor cell proliferation at 5 mg/kg, iv administered via tail vein every 2 days for 16 days by Ki67 staining based assay; assay type: functional, organism-based; details: time 16.0 day
[34] = Toxicity in female Balb/c nude mouse xenografted with human MDA-MB-231 cells assessed as change in creatinine level at 2 to 5 mg/kg, iv administered via tail vein every 2 days for 16 days; assay type: organism-based; details: in vivo, 384 h, dose 2-5 mg/kg, time 16 day
[35] = Toxicity in female Balb/c nude mouse xenografted with human MDA-MB-231 cells assessed as change in mean corpuscular hemoglobin at 2 to 5 mg/kg, iv administered via tail vein every 2 days for 16 days; assay type: organism-based; details: in vivo, 384 h, dose 2-5 mg/kg, time 16 day
[36] = Toxicity in female Balb/c nude mouse xenografted with human MDA-MB-231 cells assessed as pathological changes in lung at 2 to 5 mg/kg, iv administered via tail vein every 2 days for 16 days by H and E staining based analysis; assay type: organism-based; details: in vivo, 384 h, dose 2-5 mg/kg, time 16 day

C[n+]1c(/C=C/c2c[nH]c3ccccc23)cc(/C=C2\Sc3ccccc3N2CCCN2CCC(C(F)(F)F)CC2)c2ccccc21.[I-]
ΔTm [1]: 1.65 °C | IC50 [2]: 2.9 µM | IC50 [3]: 2.6 µM | deltaH [4]: -1.59 kcal/mol | IC50 [5]: 2.1 µM | Kd [6]: 3.28 µM | Selectivity ratio [7]: 3 | Activity [8]: Active | IC50 at 48 h [9]: 9.4 µM | IC50 at 48 h [10]: 8.7 µM | Activity [11]: Active | Activity [12]: Active | Activity [13]: Dose-Dependent Effect | inhibition [14]: Active | Activity [15]: Active | Activity [16]: Active | Activity [17]: Dose-Dependent Effect | Activity [18]: Active | Activity [19]: Active | fold change (FC) [20]: >2 | fold change (FC) [21]: >2 | fold change (FC) [22]: >2 | fold change (FC) [23]: >2 | fold change (FC) [24]: >2 | fold change (FC) [25]: >2 | fold change (FC) [26]: >2 | fold change (FC) [27]: >2 | fold change (FC) [28]: >2 | fold change (FC) [29]: >2 | Activity [30]: Non-Toxic | Activity [31]: 52.6% | Activity [32]: Dose-Dependent Effect | Activity [33]: Active | Activity [34]: Non-Toxic | Activity [35]: Non-Toxic | Activity [36]: Non-Toxic
